ChEMBL document CHEMBL5260838 (J Med Chem, 2019)
≈ marks a conversion by molar mass, not a printed value. Values belong to the molecule of their own block, whether it stands above or below them.

Legend:
[1] = molecular target: T1, Sodium channel protein type 9 subunit alpha (Homo sapiens, UniProt Q15858); experiment: Inhibition of human Nav1.7 alpha subunit expressed in HEK293 cells co-expressing beta1 subunit at -60 mV holding potential by whole-cell patch voltage clamp electrophysiology recording; type: cell-based
T1 sequence (Q15858 whole entry): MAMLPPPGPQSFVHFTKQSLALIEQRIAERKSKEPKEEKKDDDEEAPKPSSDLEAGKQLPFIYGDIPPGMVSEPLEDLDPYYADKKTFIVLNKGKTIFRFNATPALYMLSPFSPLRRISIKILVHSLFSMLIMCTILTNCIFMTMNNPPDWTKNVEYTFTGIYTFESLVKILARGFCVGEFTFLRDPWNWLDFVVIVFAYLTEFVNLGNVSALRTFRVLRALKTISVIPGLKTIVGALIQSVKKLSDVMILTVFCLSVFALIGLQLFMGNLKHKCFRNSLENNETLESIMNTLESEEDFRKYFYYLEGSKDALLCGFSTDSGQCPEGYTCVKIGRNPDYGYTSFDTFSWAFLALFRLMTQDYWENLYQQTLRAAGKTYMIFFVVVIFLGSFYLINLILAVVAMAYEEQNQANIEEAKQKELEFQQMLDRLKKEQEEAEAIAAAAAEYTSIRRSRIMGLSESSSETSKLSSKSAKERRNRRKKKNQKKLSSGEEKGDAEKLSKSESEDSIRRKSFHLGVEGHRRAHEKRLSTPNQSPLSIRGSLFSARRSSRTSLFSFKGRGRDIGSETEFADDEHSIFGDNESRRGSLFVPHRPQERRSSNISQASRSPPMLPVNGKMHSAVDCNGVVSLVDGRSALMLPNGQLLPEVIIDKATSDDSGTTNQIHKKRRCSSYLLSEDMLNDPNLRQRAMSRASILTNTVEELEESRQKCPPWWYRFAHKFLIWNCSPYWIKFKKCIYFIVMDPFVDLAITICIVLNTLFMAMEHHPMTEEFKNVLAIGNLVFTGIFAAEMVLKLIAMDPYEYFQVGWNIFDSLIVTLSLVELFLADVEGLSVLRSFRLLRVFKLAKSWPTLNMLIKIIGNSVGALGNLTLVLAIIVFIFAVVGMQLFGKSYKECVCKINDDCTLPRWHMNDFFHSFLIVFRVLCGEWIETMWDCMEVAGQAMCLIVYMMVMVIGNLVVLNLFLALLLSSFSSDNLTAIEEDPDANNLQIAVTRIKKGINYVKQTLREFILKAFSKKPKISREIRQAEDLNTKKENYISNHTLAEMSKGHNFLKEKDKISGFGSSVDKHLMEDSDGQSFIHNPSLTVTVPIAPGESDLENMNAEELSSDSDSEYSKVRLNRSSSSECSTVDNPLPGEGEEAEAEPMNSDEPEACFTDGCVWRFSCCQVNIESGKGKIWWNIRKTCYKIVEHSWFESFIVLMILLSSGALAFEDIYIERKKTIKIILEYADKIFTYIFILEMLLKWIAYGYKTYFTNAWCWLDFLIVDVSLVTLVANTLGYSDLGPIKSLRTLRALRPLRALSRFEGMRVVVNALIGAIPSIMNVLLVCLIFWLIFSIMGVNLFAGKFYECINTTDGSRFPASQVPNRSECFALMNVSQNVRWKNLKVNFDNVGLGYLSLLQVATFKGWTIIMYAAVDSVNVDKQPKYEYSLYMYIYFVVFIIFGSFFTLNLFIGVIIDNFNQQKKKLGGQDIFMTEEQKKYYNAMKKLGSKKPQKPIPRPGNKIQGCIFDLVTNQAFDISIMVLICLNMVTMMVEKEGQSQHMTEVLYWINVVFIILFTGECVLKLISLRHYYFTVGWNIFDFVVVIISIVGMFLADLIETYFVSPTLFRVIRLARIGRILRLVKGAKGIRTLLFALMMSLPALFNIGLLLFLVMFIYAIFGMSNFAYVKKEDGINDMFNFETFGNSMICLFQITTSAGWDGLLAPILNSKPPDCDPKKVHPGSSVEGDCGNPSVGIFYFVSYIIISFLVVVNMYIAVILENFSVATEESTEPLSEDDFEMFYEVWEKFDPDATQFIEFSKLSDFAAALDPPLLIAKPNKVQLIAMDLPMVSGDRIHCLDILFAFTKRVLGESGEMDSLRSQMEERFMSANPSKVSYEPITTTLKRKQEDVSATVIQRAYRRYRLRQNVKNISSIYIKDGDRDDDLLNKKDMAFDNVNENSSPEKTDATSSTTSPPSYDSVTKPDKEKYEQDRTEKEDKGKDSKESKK

[2] = molecular target: T1, Sodium channel protein type 9 subunit alpha; experiment: Displacement of [3H]GX-545 from human Nav1.7 alpha subunit expressed in HEK293 cells co-expressing beta1 subunit by liquid scintillation counting analysis; type: cell-based
[3] = Lipophilicity, logD of the compound at pH 7.4; type: physicochemical; conditions: buffer
[4] = Oral bioavailability in mouse at 30 mg/kg; type: ADME, organism-based; conditions: in vivo
[5] = Apparent permeability from apical to basolateral side in MDCK1 cells; type: ADME, cell-based, Canis lupus familiaris; conditions: dog, MDCK
[6] = Cmax in mouse at 30 mg/kg, po; type: ADME, organism-based; design: dose 30 mg/kg, route po; conditions: in vivo
[7] = Volume of distribution at steady state in mouse at 1 mg/kg, iv; type: ADME, organism-based; conditions: in vivo, read-out: Vdss
[8] = AUC in mouse at 30 mg/kg, po; type: ADME, organism-based; design: dose 30 mg/kg, route po; conditions: in vivo
[9] = Solubility of compound; type: physicochemical
[10] = Clearance in Sprague-Dawley rat at 1 mg/kg, iv; type: ADME, organism-based; conditions: in vivo
[11] = Protein binding in mouse plasma; type: ADME, cell-free; conditions: read-out: PPB (converted)
[12] = molecular target: Sodium channel protein type 9 subunit alpha (Rattus norvegicus, UniProt O08562); experiment: Inhibition of rat Nav1.7 at -60 mV holding potential by PatchXpress automated voltage clamp electrophysiology technique
[13] = molecular target: Sodium channel protein type 2 subunit alpha (Homo sapiens, UniProt Q99250); experiment: Inhibition of human Nav1.2 alpha subunit expressed in HEK293 cells co-expressing beta1 subunit at -35 mV holding potential by PatchXpress automated voltage clamp electrophysiology technique; type: cell-based
Sodium channel protein type 2 subunit alpha, sequence (Q99250 whole entry): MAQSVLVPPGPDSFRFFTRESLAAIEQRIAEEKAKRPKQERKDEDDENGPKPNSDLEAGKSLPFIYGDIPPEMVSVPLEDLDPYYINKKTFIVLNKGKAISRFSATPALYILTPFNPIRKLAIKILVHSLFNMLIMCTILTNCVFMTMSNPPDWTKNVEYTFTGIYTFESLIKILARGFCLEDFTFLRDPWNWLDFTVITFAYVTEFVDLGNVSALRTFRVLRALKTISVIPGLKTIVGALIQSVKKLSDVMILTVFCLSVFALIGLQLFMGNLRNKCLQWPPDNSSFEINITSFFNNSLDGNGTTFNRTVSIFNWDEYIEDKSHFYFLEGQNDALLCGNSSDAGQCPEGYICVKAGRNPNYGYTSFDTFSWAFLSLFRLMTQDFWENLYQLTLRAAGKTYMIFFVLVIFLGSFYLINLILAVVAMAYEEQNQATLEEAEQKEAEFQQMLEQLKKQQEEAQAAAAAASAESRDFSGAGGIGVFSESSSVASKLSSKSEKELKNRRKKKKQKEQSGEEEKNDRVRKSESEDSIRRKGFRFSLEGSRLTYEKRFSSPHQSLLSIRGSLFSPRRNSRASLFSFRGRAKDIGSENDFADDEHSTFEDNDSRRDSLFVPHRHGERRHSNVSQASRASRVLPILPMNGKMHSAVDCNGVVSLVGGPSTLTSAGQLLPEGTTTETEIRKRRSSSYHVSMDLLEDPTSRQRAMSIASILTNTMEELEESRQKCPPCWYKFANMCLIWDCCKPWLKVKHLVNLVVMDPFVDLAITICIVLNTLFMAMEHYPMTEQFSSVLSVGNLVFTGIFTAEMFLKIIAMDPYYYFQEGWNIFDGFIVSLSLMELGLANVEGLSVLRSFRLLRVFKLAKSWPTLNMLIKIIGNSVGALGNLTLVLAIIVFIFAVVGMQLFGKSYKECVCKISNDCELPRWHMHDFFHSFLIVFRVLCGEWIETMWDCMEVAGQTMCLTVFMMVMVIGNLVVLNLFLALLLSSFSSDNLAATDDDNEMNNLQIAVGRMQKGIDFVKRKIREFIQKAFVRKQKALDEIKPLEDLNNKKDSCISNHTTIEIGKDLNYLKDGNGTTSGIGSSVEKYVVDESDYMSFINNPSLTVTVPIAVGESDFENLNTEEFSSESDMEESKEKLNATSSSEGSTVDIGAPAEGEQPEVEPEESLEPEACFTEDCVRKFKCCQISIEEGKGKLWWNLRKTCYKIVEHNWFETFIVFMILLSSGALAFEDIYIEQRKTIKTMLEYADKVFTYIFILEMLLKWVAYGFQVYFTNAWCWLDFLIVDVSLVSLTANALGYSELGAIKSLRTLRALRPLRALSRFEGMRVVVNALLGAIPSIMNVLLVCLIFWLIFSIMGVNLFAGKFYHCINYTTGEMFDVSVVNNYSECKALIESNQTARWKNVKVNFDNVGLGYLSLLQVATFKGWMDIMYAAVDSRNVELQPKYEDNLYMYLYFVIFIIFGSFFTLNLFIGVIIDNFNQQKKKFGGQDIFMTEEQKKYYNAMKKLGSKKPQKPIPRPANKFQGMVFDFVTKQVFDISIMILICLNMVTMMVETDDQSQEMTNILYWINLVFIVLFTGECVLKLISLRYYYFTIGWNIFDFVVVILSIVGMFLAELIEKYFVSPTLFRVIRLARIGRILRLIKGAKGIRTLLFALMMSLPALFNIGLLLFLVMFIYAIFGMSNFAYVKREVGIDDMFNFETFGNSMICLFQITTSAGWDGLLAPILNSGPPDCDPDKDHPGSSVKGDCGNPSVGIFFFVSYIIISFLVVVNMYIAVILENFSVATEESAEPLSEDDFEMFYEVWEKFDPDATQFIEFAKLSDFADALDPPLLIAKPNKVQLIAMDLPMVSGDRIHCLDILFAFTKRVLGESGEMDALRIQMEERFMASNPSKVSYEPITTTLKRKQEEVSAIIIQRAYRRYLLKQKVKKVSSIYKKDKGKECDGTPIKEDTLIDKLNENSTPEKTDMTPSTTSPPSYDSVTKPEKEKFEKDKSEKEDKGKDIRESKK

Mus musculus [14] = experiment: Antinociceptive activity against aconitine-induced pain in FVB mouse model expressing human Nav 1.7 I848T mutant assessed as reduction in nociceptive behavior at 3 mg/kg administered 120 mins prior to aconitine administration and measured after 70 mins relative to control; type: functional; design: scale not given: the % may be the effect or the level left; conditions: time 190 min, 3.167 h
[15] = Oral bioavailability in FVB mouse at 30 mg/kg; type: ADME, organism-based; conditions: in vivo
[16] = Half-life in FVB mouse at 1 mg/kg, iv; type: ADME, organism-based; conditions: FVB, in vivo
[17] = AUC in FVB mouse at 30 mg/kg, po; type: ADME, organism-based; design: dose 30 mg/kg, route po; conditions: in vivo
[18] = Half-life in Sprague-Dawley rat at 1 mg/kg, iv; type: ADME, organism-based; conditions: in vivo
[19] = Clearance in FVB mouse at 1 mg/kg, iv; type: ADME, organism-based; conditions: in vivo
[20] = molecular target: Sodium channel protein type 8 subunit alpha (Homo sapiens, UniProt Q9UQD0); experiment: Inhibition of human Nav1.6 alpha subunit expressed in HEK293 cells co-expressing beta1 subunit at -35 mV holding potential by PatchXpress automated voltage clamp electrophysiology technique; type: cell-based
Mus musculus [21] = experiment: Antinociceptive activity against aconitine-induced pain in FVB mouse model expressing human Nav 1.7 I848T mutant assessed as reduction in nociceptive behavior at 6 mg/kg administered 120 mins prior to aconitine administration and measured after 70 mins relative to control; type: functional; design: scale not given: the % may be the effect or the level left; conditions: time 190 min, 3.167 h
[22] = molecular target: Sodium channel protein type 5 subunit alpha (Homo sapiens, UniProt Q14524); experiment: Inhibition of human Nav1.5 alpha subunit expressed in HEK293 cells co-expressing beta1 subunit at -60 mV holding potential by PatchXpress automated voltage clamp electrophysiology technique; type: cell-based
[23] = Half-life in FVB mouse at 30 mg/kg, po; type: ADME, organism-based; conditions: in vivo
[24] = Kinetic solubility of compound; type: physicochemical; conditions: read-out: Kinetic_solubility
[25] = Oral bioavailability in Sprague-Dawley rat at 5 mg/kg; type: ADME, organism-based; conditions: in vivo
MDR1 = experiment: Apparent permeability from apical to basolateral side in MDCK1 cells expressing MDR1; type: ADME, cell-based, Canis lupus familiaris; conditions: dog, MDCK-MDR1
[26] = molecular target: Sodium channel protein type 9 subunit alpha (Mus musculus, UniProt Q62205); experiment: Inhibition of mouse Nav1.7 at -60 mV holding potential by PatchXpress automated voltage clamp electrophysiology technique
[27] = Volume of distribution at steady state in FVB mouse at 1 mg/kg, iv; type: ADME, organism-based; conditions: FVB, in vivo, read-out: Vdss
[28] = Volume of distribution at steady state in Sprague-Dawley rat at 1 mg/kg, iv; type: ADME, organism-based; conditions: in vivo, read-out: Vdss
[29] = AUC in Sprague-Dawley rat at 5 mg/kg, po; type: ADME, organism-based; design: dose 5 mg/kg, route po; conditions: in vivo
[30] = Protein binding in rat plasma; type: ADME, cell-free; conditions: read-out: PPB (converted)
[31] = molecular target: Sodium channel protein type 1 subunit alpha (Homo sapiens, UniProt P35498); experiment: Inhibition of human Nav1.1 alpha subunit expressed in HEK293 cells co-expressing beta1 subunit at -40 mV holding potential by PatchXpress automated voltage clamp electrophysiology technique; type: cell-based
[32] = molecular target: Sodium channel protein type 10 subunit alpha (Mus musculus) (UniProt Q6QIY3); experiment: Inhibition of TTX-resistant Nav1.8 in mouse dorsal root ganglion neuron at 10 uM by voltage clamp recording relative to control; type: tissue-based; conditions: DRG neuron
[33] = Cmax in FVB mouse at 30 mg/kg, po; type: ADME, organism-based; design: dose 30 mg/kg, route po; conditions: in vivo
[34] = Protein binding in human plasma; type: ADME, cell-free; conditions: read-out: PPB (converted)
[35] = Cmax in Sprague-Dawley rat at 5 mg/kg, po; type: ADME, organism-based; design: dose 5 mg/kg, route po; conditions: in vivo
[36] = Half-life in Sprague-Dawley rat at 5 mg/kg, po; type: ADME, organism-based; conditions: in vivo
Mus musculus [37] = experiment: Antinociceptive activity against aconitine-induced pain in FVB mouse model expressing human Nav 1.7 I848T mutant assessed as reduction in nociceptive behavior at 10 mg/kg administered 120 mins prior to aconitine administration and measured after 70 mins relative to control; type: functional; design: scale not given: the % may be the effect or the level left; conditions: time 190 min, 3.167 h
[38] = test system: mouse breast cancer resistant protein (Bcrp); experiment: Apparent permeability from apical to basolateral side in MDCK-II cells expressing mouse breast cancer resistant protein; type: ADME, cell-based, Canis lupus familiaris; conditions: dog

Structure (SMILES): CS(=O)(=O)NC(=O)c1cc(Cl)c(OCC23CC4(F)CC(F)(CC(F)(C4)C2)C3)cc1F
IC50 [1]: 752 nM | IC50 [2]: 2400 nM

Structure (SMILES): CS(=O)(=O)NC(=O)c1cc(Cl)c(OCCC2CC2)cc1F
IC50 [1]: 440 nM | IC50 [2]: 2700 nM | logD ([3]; read-out: logD): 0.4

Structure (SMILES): CS(=O)(=O)NC(=O)c1cc(Cl)c(OCC23CC4CC(CC(O)(C4)C2)C3)cc1F
IC50 [1]: 2200 nM | IC50 [2]: > 10000 nM

Structure (SMILES): CS(=O)(=O)NC(=O)c1cc(Cl)c(OC2CCCCC2)cc1F
IC50 [1]: 260 nM | IC50 [2]: 1200 nM | logD ([3]; read-out: logD): 1.3

Structure (SMILES): CS(=O)(=O)NC(=O)c1cc(Cl)c(OCC23CC4CC(CC(C4)C2)C3)cc1F
bioavailability [4]: 100% | Papp A→B [5]: 13 ×10⁻⁶ cm/s | Cmax [6]: 45 µM | logD [3]: 3.5 | Vd [7]: 1.2 L/kg | AUC [8]: 240 µM·h | solubility [9]: 31 µM (≈ 12.9 µg/mL)

Structure (SMILES): CS(=O)(=O)NC(=O)c1cc(Cl)c(OCC2CCCC2)cc1F
IC50 [1]: 68 nM | IC50 [2]: 520 nM | logD ([3]; read-out: logD): 1.1

Structure (SMILES): CS(=O)(=O)NC(=O)c1cc(Cl)c(OCC2CCOCC2)cc1F
IC50 [1]: 7400 nM | IC50 [2]: > 10000 nM | logD ([3]; read-out: logD): 0.21

Structure (SMILES): CS(=O)(=O)NC(=O)c1cc(Cl)c(OCCC2CCCCC2)cc1F
IC50 [1]: 17 nM | IC50 [2]: 500 nM | logD ([3]; read-out: logD): 1.5

Structure (SMILES): CS(=O)(=O)NC(=O)c1cc(F)c(OCC23CC4CC(CC(C4)C2)C3)cc1F
IC50 [1]: 41 nM | IC50 [2]: 640 nM

Structure (SMILES): CS(=O)(=O)NC(=O)c1cc(Cl)c(OCC23CC4CC(CC(F)(C4)C2)C3)cc1F
IC50 [2]: 357 nM

Structure (SMILES): CS(=O)(=O)NC(=O)c1cc(Cl)c(OCC23CC4CC(CC(C4)C2)C3)cc1Cl
IC50 [1]: 570 nM | IC50 [2]: 2300 nM

Structure (SMILES): CC1(COc2cc(F)c(C(=O)NS(=O)(=O)C3CC3)cc2C2CC2)CCC(F)(F)CC1
clearance [10]: 0.4 mL/min/kg | fraction unbound [11]: 0.002 | IC50 [12]: 9 nM | IC50 [13]: 6 nM | Activity (Mus musculus [14]): 56% | bioavailability [15]: 49% | half-life [16]: 2.1 h | AUC [17]: 350 µM·h | Papp A→B [5]: 22 ×10⁻⁶ cm/s | half-life [18]: 9 h | clearance [19]: 1.6 mL/min/kg | IC50 [20]: 49 nM | Activity (Mus musculus [21]): 72% | IC50 [22]: 260 nM | half-life [23]: 15.6 h | solubility kinetic [24]: 32 µM (≈ 14.3 µg/mL) | bioavailability [25]: 66% | Papp A→B (MDR1): 11 ×10⁻⁶ cm/s | logD ([3]; read-out: logD): 1.4 | IC50 [26]: 2.5 nM | Vd [27]: 0.28 L/kg | Vd [28]: 0.29 L/kg | AUC [29]: 160 µM·h | fraction unbound [30]: 0.002 | IC50 [31]: 48 nM | inhibition [32]: 26% | Cmax [33]: 69 µM | fraction unbound [34]: 0.004 | Cmax [35]: 25 µM | half-life [36]: 16.9 h | Activity (Mus musculus [37]): 84% | Papp A→B [38]: 0.4 ×10⁻⁶ cm/s

Further lines, results first:

IC50 [1]: 59 nM | IC50 [2]: 330 nM
Structure (SMILES): CS(=O)(=O)NC(=O)c1ccc(OCC23CC4CC(CC(C4)C2)C3)c(Cl)c1

IC50 [1]: 6 nM | IC50 [2]: 37 nM
Structure (SMILES): Cc1cc(C(=O)NS(C)(=O)=O)c(F)cc1OCC12CC3CC(CC(C3)C1)C2

IC50 [2]: 290 nM
Structure (SMILES): CS(=O)(=O)NC(=O)c1cc(Cl)c(OCC23CC4CC(C2)C(F)(F)C(C4)C3)cc1F

IC50 [1]: 6 nM | IC50 [2]: 15 nM
Structure (SMILES): CCc1cc(C(=O)NS(C)(=O)=O)c(F)cc1OCC12CC3CC(CC(C3)C1)C2

IC50 [1]: 10 nM | IC50 [2]: 28 nM
Structure (SMILES): CC(C)c1cc(C(=O)NS(C)(=O)=O)c(F)cc1OCC12CC3CC(CC(C3)C1)C2

IC50 [1]: 43 nM | IC50 [2]: 180 nM | logD ([3]; read-out: logD): 1.4
Structure (SMILES): CS(=O)(=O)NC(=O)c1cc(Cl)c(OCC2CCCCC2)cc1F

IC50 [1]: 75 nM | IC50 [2]: 304 nM
Structure (SMILES): COCCS(=O)(=O)NC(=O)c1cc(C2CC2)c(OCC2CCC(F)(F)CC2)cc1F

IC50 [2]: 6 nM
Structure (SMILES): CS(=O)(=O)NC(=O)c1cc(C2CC2)c(OCC23CC4CC(CC(C4)C2)C3)cc1F

IC50 [1]: 3.1 nM | IC50 [2]: 8 nM
Structure (SMILES): CS(=O)(=O)NC(=O)c1cc(C2CC2)c(OCC23CC4CC(C2)C(F)(F)C(C4)C3)cc1F

IC50 [1]: 6 nM | IC50 [2]: 10 nM
Structure (SMILES): CC1(COc2cc(F)c(C(=O)NS(=O)(=O)C3CC3)cc2C2CC2)CCC(C(F)(F)F)CC1 (configuration not stated)

IC50 [1]: 5 nM | IC50 [2]: 17 nM
Structure (SMILES): CCC1(COc2cc(F)c(C(=O)NS(=O)(=O)C3CC3)cc2C2CC2)CCC(F)(F)CC1

IC50 [2]: 33 nM
Structure (SMILES): O=C(NS(=O)(=O)C1CC1)c1cc(C2CC2)c(OCC2CCC(F)(F)CC2)cc1F

IC50 [1]: 0.7 nM | IC50 [2]: 22 nM
Structure (SMILES): CS(=O)(=O)NC(=O)c1cc(C2CC2)c(OCC2CCCCC2)cc1F
